# In PubChem BioAssay AID1996:
# Conditions: buffer; pH 7.4; 200.0 µM
row,solubility kinetic [µg/mL],Compound
1,> 52.4,Cc1ccc2nsnc2c1S(=O)(=O)Nc1ccccc1C(=O)O
2,1,Cc1ccc2[nH]c(=O)c3cc(C(=O)NCC4CCCO4)sc3c2c1 (stereo not drawn)
3,52.8,CC(C)(C)NC(=O)[C@H]1CC[C@H]2[C@@H]3CC[C@H]4NC(=O)C=C[C@]4(C)[C@H]3CC[C@]12C
4,> 45.7,O=c1c2nccnc2[nH]c(=S)n1Cc1ccccc1Cl
5,0.3,COc1cccc(NC(=O)Nc2cccc(C)n2)c1
6,44.9,CCCCNc1ncnc2sc3c(c12)CCN(CCC)C3
7,> 57.2,O=C(O)c1ccc(S(=O)(=O)N(Cc2cccs2)CC2CCCO2)cc1 (stereo not drawn)
8,5.7,O=c1[nH]cccc1-c1nc2cc(Cl)ccc2n1Cc1ccccc1
9,> 52.1,COc1ccc(S(=O)(=O)N2CCN(Cc3cccnc3)CC2)cc1
10,< 0.3,COc1ccc(-c2csc(NC(=O)c3ccoc3C)n2)cc1
11,8,CCCCNC(=S)N1CCN(c2ccc(C(C)=O)cc2)CC1
12,2.8,CCN(CC(=O)NCc1ccc(Cl)cc1)C(=O)/C=C/c1ccccc1
13,< 0.3,Cc1ccccc1C(=O)Nc1nc2c(C)csc2c(=O)s1
14,> 45.4,CCCCc1nc2cc(C(=O)N3CCC[C@H]3CO)ccc2o1
15,> 53.9,Cc1ccc(-c2c[n+](Cc3ccc(Cl)cc3)c3n2CCC3)cc1.[Cl-]
16,6.9,O=C(c1ccc(Cl)cc1)N1CCCCC(Cl)C1=O (stereo not drawn)
17,40.3,O=C(c1ccc(Cl)cc1)N1CCOc2ccccc21
18,35.1,CCOC(=O)c1c(-c2cccc(N)c2)cn2ccccc12
19,> 38.1,Cl.OCCN1C2=NCCCN2c2ccccc21
20,< 0.7,O=C(NCCc1ccc(F)cc1)c1cc2ccccc2oc1=O
21,29.7,Cc1ccc(S(=O)(=O)c2c(C)c(C)c(C)[nH]c2=O)cc1
22,7.9,CC(=O)Oc1cccc(-c2nc3ccccc3c(=O)o2)c1
23,2.9,Cc1ccc(O)c(CNc2cccc3cccnc23)c1

row,solubility kinetic [µg/mL],Compound
1,7.1,Cc1ccc(NC(=S)N2CCC(c3ccccc3)C2)c(Cl)c1 (stereo not drawn)
2,> 33.2,CC(C)[C@H](NC(=O)c1ccccc1)C(=O)O
3,> 38.6,O=C(C[n+]1cc[nH]c1)c1ccc(Cl)cc1.[Cl-]
4,> 45,COc1c(Cl)ccc(Cl)c1C(=O)NCc1ccco1
5,11.1,O=C(OCc1cc(=O)n2ccsc2n1)c1ccc(O)cc1O
6,> 52,CCN(CC(=O)NCc1cccs1)C(=O)CCOc1ccccc1
7,21.7,CN1C(=O)C2(OCC(C)([N+](=O)[O-])CO2)c2ccccc21 (stereo not drawn)
8,< 0.4,Cc1ccc(NC(=O)Nc2ccc(F)cc2F)c(OC(F)F)c1
9,> 43.5,Cc1nnc(-c2ccc(N3CCOCC3)c([N+](=O)[O-])c2)o1
10,4,Clc1ccc(-c2nsc(N3CCOCC3)n2)c(Cl)c1
11,43.8,COc1ccc(Nc2nc(C)cc(C)c2C(N)=O)cc1OC
12,33.8,COc1ccc(N2C(=O)CCC2=O)c(OC)c1
13,4.8,O=C(COC(=O)/C=C/c1ccccc1)NCc1ccc2c(c1)OCO2
14,32,CC(C)n1cnc2cc(NCc3ccccc3O)ccc21
15,> 48.1,COc1ccccc1C(C)NCC(=O)Nc1c(F)cccc1F (stereo not drawn)
16,4.1,O=C(COc1cccc(Br)c1)Nc1ccc(Cl)c(S(=O)(=O)N2CCOCC2)c1
17,2.2,CCOC(=O)c1[nH]cnc1C(=O)Nc1ccc(Cl)cc1
18,< 0.3,FC(F)(F)c1cccc(OCc2noc(-c3ccsc3)n2)c1
19,> 42.8,Nc1nc(F)nc2c1ncn2[C@@H]1O[C@H](CO)[C@@H](O)[C@H]1O
20,24.3,CCOc1ccc(S(=O)(=O)NCc2ccc3c(c2)OCO3)cc1C
21,> 47.6,CCNC(=O)c1ccccc1NC(=O)C1CC(=O)N(C(C)C)C1 (stereo not drawn)
22,9.4,Cc1ccc(S(=O)(=O)N2CCCCC2)cc1NC(=O)CCNC(=O)c1ccccc1
23,> 47.5,COc1cc(NC(=S)N2CCOCC2)c(OC)cc1Cl

row,solubility kinetic [µg/mL],Compound
1,0.4,Cc1cc2c(=O)n(C)c(SCC(=O)Nc3ccccc3)nc2s1
2,> 51.8,CCOC(=O)c1c(C)[nH]c(C)c1C(=O)COC(=O)c1ccc(O)cc1
3,> 54.2,Cc1c(C=Nc2ccc(S(=O)(=O)CCO)cc2)c(O)[nH]c(=O)c1C#N
4,5.5,Cc1sc2ncnc(SCC(=O)N3CCCCC3)c2c1C
5,0.6,O=C(NCc1cccs1)c1cccn2c(=O)c3sccc3nc12
6,33.8,CNC(=O)c1ncoc1-c1ccc(Cl)cc1
7,3.9,CC(=O)Nc1ccc2c(c1)CCc1ccccc1-2
8,> 49.7,N#Cc1ccsc1NC(=O)CCN1C(=O)C2CCCCC2C1=O (stereo not drawn)
9,> 33,Oc1ccc(/C=N/N2CCCCC2)cc1O
10,> 48.2,COc1ccccc1-n1c(CCC(=O)O)ccc1-c1ccccc1
11,7.1,CC(C(=O)NC1CCCCCC1)c1ccc([N+](=O)[O-])cc1 (stereo not drawn)
12,> 54.1,C=CCn1c(SCC(=O)C23CC4CC(CC(C4)C2)C3)nc(O)cc1=O
13,> 37.1,O=C(Nc1ccc2c(c1)OCCO2)C1CCCC1
14,44,CCCCC(=O)Nc1ccc(C2C(=O)c3ccccc3C2=O)cc1
15,> 49.6,CC1(C)CC(NS(=O)(=O)c2ccc(Cl)cc2)CC(C)(C)N1
16,12.4,Cc1ccc(NC(=O)COC(=O)Cc2ccc(Br)cc2)cc1S(=O)(=O)N1CCOCC1
17,27.6,Cc1ccc(CNC(=O)c2ccc(OCC(C)C)cc2)n1C
18,> 44.9,O=C(O)c1cccc(N2C(=O)CSC2c2ccccc2)c1 (stereo not drawn)
19,5.2,O=c1oc(-c2ccccc2Br)nc2ccccc12
20,< 0.7,COc1ccc2cc(S(=O)(=O)N3CCCC(C)C3)ccc2c1 (stereo not drawn)
21,> 57.8,CC(OC(=O)c1ccc(NC(N)=O)cc1)C(=O)Nc1ccc2c(c1)OCCO2 (stereo not drawn)
22,> 65.5,O=C(COC(=O)c1ccc(F)c(S(=O)(=O)N2CCOCC2)c1)NCc1ccccc1
23,> 50.7,Cc1cc(=O)oc2cc(OCC(=O)N3CCOCC3)c(Cl)cc12

row,solubility kinetic [µg/mL],Compound
1,> 47.9,O=C(c1c[nH]c2ccccc12)N1CCN(Cc2ccccc2)CC1
2,> 53.8,O=C(CN1CCN(Cc2ccccc2Cl)C1=O)NCc1ccccn1
3,47.1,CN(C)S(=O)(=O)c1cc(C(=O)NCc2ccccc2)c(Cl)cc1Cl
4,5.6,Cc1cc(=O)oc2c(C(=O)c3ccccc3)c(OCC(N)=O)ccc12
5,33.8,N#C/C(=C\c1ccc(F)cc1)C(=O)NC1CCS(=O)(=O)C1 (stereo not drawn)
6,2.3,O=C(NC1CCN(Cc2ccc(Cl)cc2Cl)CC1)c1ccccc1
7,14,Cc1ccc(CC(=O)Nc2cc(C)on2)cc1
8,4.3,O=C(Nc1ccccc1Cl)c1csc(-c2cccnc2)n1
9,44.7,COc1ccc(CN(C(=O)/C=C/c2ccco2)C2CCS(=O)(=O)C2)cc1 (stereo not drawn)
10,44.6,COc1ccc(C2SCC(=O)N2Cc2ccccc2)cc1 (stereo not drawn)
11,4.3,Cc1oc(S(=O)(=O)N2CCCC2)cc1C(=O)Nc1ccccc1
12,> 46.4,O=C(NCCc1ccccc1)c1ccc2[nH]c(=O)c(=O)[nH]c2c1
13,> 36.5,COC(=O)c1cc(C(=O)Cc2ccccc2)c[nH]1
14,6.5,CCOc1ncccc1C(=O)Nc1cc(S(=O)(=O)N(CC)CC)ccc1N1CCOCC1
15,> 44.1,CN(CC(=O)Nc1cccc(F)c1)C(=O)C1=COCCO1
16,> 33.9,Cc1ccc(-c2cnc3n2CCCCC3)cc1
17,> 49.9,CCOc1ccc(S(=O)(=O)/N=C(/c2ccccc2)N(C)C)cc1
18,> 42.2,CCCCCCCn1ccc(O)c(CC(=O)OC)c1=O
19,> 47.9,NC(=O)C1CCN(CC(=O)Nc2ccc3c(c2)OCCO3)CC1
20,> 42.4,Cc1cc(C(=O)NC2CCCCC2C)c2ccccc2n1 (stereo not drawn)
21,> 47.3,CC(C)(Cc1ccc(O)cc1)NC(=O)SCc1ccccc1
22,51.8,CCN(CC(=O)NCc1cccs1)C(=O)c1ccc(-c2ccc(F)cc2)o1
23,39.2,O=C(CCCc1cccs1)Nc1ccc2c(c1)OCO2

row,solubility kinetic [µg/mL],Compound
1,1.3,O=C(NCc1ccco1)c1ccc(-c2cccc(Cl)c2)o1
2,2.1,CC1=CC(C)(C)NC(=S)N1c1ccc(C)cc1C
3,22.6,Cc1cc(C)nc(NC(=O)c2cccs2)c1
4,13.3,Cc1ccccc1NC(=S)N(Cc1cccs1)C1CCCC1
5,> 41.3,Cl.O=C(CN1CCCC1)Nc1cccc(Cl)c1
6,6.1,Cc1c(C(=O)NC2CCCc3ccccc32)cccc1[N+](=O)[O-] (stereo not drawn)
7,6.9,COc1ccccc1NC(=O)COc1cccc2c1CCNC2=O
8,3.9,CCOc1cccc(C(=O)Nc2cccc(NC(=O)c3ccco3)c2)c1
9,> 48.4,COc1ccc(C)cc1S(=O)(=O)NNc1nc(C)cc(C)n1
10,0.3,CCOC(=O)c1ccc2ncc(-c3ccccc3)nc2c1
11,0.9,Cc1ccc(C)c(Nc2nc(-c3cccnc3)cs2)c1
12,> 43.3,Cc1cc(C)c(NC(=O)C2CC(=O)N(C(C)C)C2)c(C)c1 (stereo not drawn)
13,> 48.4,CCCC(=O)N1CC(=O)Nc2ccc(C)cc2C1c1ccccc1 (stereo not drawn)
14,6.8,CC(NS(=O)(=O)c1ccc(N)cc1)C1CC2CCC1C2 (stereo not drawn)
15,> 55.4,Cc1cnc(C(=O)OCC(=O)N(CC(C)C)C2CCS(=O)(=O)C2)cn1 (stereo not drawn)
16,29,CC(=O)Nc1ccc(N=c2cc([N+](=O)[O-])cc(Cl)n2O)cc1
17,8.2,O=[N+]([O-])c1ccc(NC(=S)N2CCCC2)cc1
18,> 44.2,O=C1CCCN1CN(C(=O)c1ccccc1)c1ccccc1
19,> 52.6,Cc1ccc(NC(=O)Cn2nc(C)c(S(=O)(=O)N(C)C)c2C)cc1
20,7.1,O=C(COC(=O)/C=C/c1ccc(Cl)cc1)NC1CC1
21,48.2,CC(C)CCN(C(=S)Nc1cccc(F)c1)C1CCN(C(C)C)CC1

row,Compound,solubility kinetic [µg/mL]
1,COc1ccc(C(O)C(C)NC(C)C(O)c2ccc(OC)cc2)cc1 (stereo not drawn),43.3
2,CCNc1cc(N2CCN(C)CC2)ccc1[N+](=O)[O-],> 39.6
3,Cc1ccccc1NC(=O)c1cc(-c2ccccc2)n(CCCN2CCOCC2)c1C,16.3
4,CCCN(CC1CC1)CC(O)c1ccccc1.O=C(O)C(=O)O (stereo not drawn),> 48.5
5,CN1CCCN(C(=O)COc2ccc(Br)cc2)CC1,44.7
